Laboratory results: paper PMC7449455 (PLoS Neglected Tropical Diseases, 2020)
“Also recorded” adds a separate entry of the source. Where a name gives a salt, the structure may show the parent alone.

Key:
L. major [1] = test: L. major ex vivo lymph node explant culture (EVC), luminometry; assay type: cell-based, Leishmania major; settings: 48 h at 34°C, luminescence
Experimental: An ex vivo explant culture (EVC) used in multiple experiments was obtained as previously described. Briefly, the mice were inoculated on the snout and rump with 10^7 metacyclic promastigotes of L. major-LUC. At 3 weeks post-infection (p.i.), the draining lymph nodes (retropharyngeal and sub-iliac) of infected animals were aseptically removed, infiltrated with 2 mg/mL of collagenase D (Roche) and incubated for 30 minutes at 37°C [21]. The cell suspension was washed in DMEM, and re-suspended in 2X supplemented culture medium, composed of DMEM (Cellgro), 10% heat-inactivated FBS (Atlanta Biologicals, Lawrenceville, GA), 2 mM Sodium pyruvate (Sigma, St. Louis MO), 2X MEM amino acids solution (Sigma), and 20 mM HEPES buffer (Cellgro). The EVC 100,000-cell suspension in 100 μL was dispensed in white luminometry plates (Costar) and exposed to 2-fold serial dilutions of 2X H1RAs in 100 μL DMEM (plain culture medium).
(§1) Cells exposed to compounds were lysed and the luciferase signal read in a plate luminometer (FLUOstar Omega, BMG Labtech) after adding 100 μL of luciferin substrate (Promega). The percentage of parasite inhibition compared with the vehicle control was calculated as = 100 - [(parasite counts in treated cells/parasite counts in vehicle wells) x 100]. The EC50 was determined by regression analysis using GraphPad (Prism 5.0) and the mean and standard error from three different experiments was utilized to estimate the final EC50. The anti-leishmanial efficacy of compounds was evaluated using L. major-LUC promastigotes in the logarithmic phase of growth (4 days). The parasites were grown in M199 supplemented with 20% FBS, 0.1% hemin and 10 mM adenine. Then, L. major was harvested and exposed to serial 2-fold dilutions of the compounds in a 100μL volume (10^6 promastigotes/mL) in 96-well white plates. After 48 h at 28°C incubation, the parasites were pelleted by centrifugation, lysed and 100 μL of luciferin substrate was added (Promega). The luciferase signal was read as described above.

[2] = Cytotoxicity in HepG2 cells (CellTiter-Glo); assay type: cell-based; settings: human, HepG2 cell line, ATP quantification
Experimental: (§2) To determine compound toxicity we used the HepG2 cell line (human hepatocellular carcinoma, ATCC HB-8065) as a widely used cell-based assay. The cells were maintained in MEM (Gibco) supplemented with 5% heat-inactivated FBS, 1 mM Sodium pyruvate (Gibco) and 1X MEM amino acids solution (Sigma). Briefly, cells were added to white-bottomed 96-well plates containing 100 μL of serial 2-fold dilutions of the H1RAs. After 24 hours of culture at 37 °C, the percentage of viable cells was determined by ATP quantification using the CellTiter-Glo luminescent Cell Viability Assay (Promega) according to the manufacturer’s instructions. […] At least three different assays were carried out to determine the IVTI of each compound, which was calculated as the ratio between the CC50 obtained in the HepG2 cell line and the EC50 determined in the L. major EVC [21]. To evaluate the cytotoxicity of AZ and FX in peritoneal macrophages, adherent cells obtained from peritoneal lavage of naïve mice (10,000/well) were exposed during 24 hours at 37°C to serial drug concentrations (0.09 μM—200 μM). Cell viability was determined by CellTiter-Glo (Promega).

[3] = tested on: h1r, il-1ẞ, IL-6 expression; test: Gene expression by qPCR in L. major ex vivo lymph node explant culture; assay type: cell-based, mouse; settings: EVC; for expression of H1R / expression of IL-1ẞ: quantitative PCR
Experimental: After 48 h of ex vivo treatments, the samples were lysed in 10 μL of IGEPAL lysis buffer (10 mM Tris-HCL ph7.4 + 0.3% IGEPAL, 0.1% BSA + 150 mM NaCl and 1,500 cells/μL) and reverse transcribed (High-Capacity cDNA Reverse Transcription Kit, ThermoFisher Sci.). Mouse h1r, il-1ẞ, and Leishmania 18s genes were amplified by qPCR using the following primers: mouse h1r: Fw- […]; Rev-[…] (PrimerBank database; ID and 31542963a1); Mouse il-1β: Fw- […]; Rev- […]); Leishmania 18s: Fw-[…]; Rev- […] [28]. Amplicons were detected with SYBR. The fold change of gene expression was estimated by the delta CT method using the host cell 18s as reference gene. The percentage of parasite load was calculated with reference to DMSO controls.

L. infantum [4] = tested on: L. infantum; parameters: method as in PMID 31002807, PMID 24905294; settings: cited from earlier work
Leishmania mexicana = settings: alone or in combination with pentostam; cited from earlier work
L. infantum [5] = tested on: L. infantum; parameters: method as in PMID 31002807; settings: infected spleen macrophages from hamsters; cited from earlier work
L. major [6] = test: In vivo efficacy in BALB/c mice infected with L. major-LUC
Experimental: Mice were infected in the rump with 10^7 opsonized promastigotes of L. major-LUC as we previously described. The animals were treated starting at day 3 p.i. for up to 10 days. AZ (0.0625 and 0.125 mg/mouse) and FX (40 and 80 mg/kg) were dissolved in sterile PBS and administered by intralesional injection (ID) or gavage (PO), respectively. Mice receiving AZ were treated 3 times at 48-hour intervals. Control mice received sterile PBS according to the route used by each H1RAs (ID or PO). Miltefosine was administered orally at doses of 25 mg/kg or 50 mg/kg for 10 days and used as positive control of parasite suppression. The clinical efficacy was assessed by comparing lesion size (LS) after 10 days of treatment compared with the negative vehicle control as described by Grogl et al.. Therefore, percent suppression was defined as [(LS negative control–LS compound) / LS negative control] x 100. A parasite suppression ≥50% compared with the untreated control was considered significant anti-leishmanial activity. Lesion size (area in mm^2 = length x width) was measured using a digital caliper (Mitutoyo; Kawasaki, Japan).
The parasite burden of individual mice was assessed in vivo at the beginning and end of the experiment using the IVIS Spectrum equipment (Perkin Elmer) by injecting the animals with 1.5 mg luciferin (GoldBio) intradermally at the infection site. The ultrasensitive IVIS camera quantitatively measures the light emitted by the luciferase-transfected L. major upon exposure to the substrate (firefly luciferin). The mice were imaged under deep anesthesia using an isoflurane vaporizer. They were placed in a supine position in the pre-warmed IVIS box and the images were taken exactly 5 minutes after luciferin injection. The analysis was performed after defining a standard region of interest (ROI) over the infection site using the Living Image software (Xenogen Corporation, Almeda, CA). This protocol allowed us to determine the parasite burden in the same animal over multiple time points. Results were expressed in units of photons per second. […] This approach is in accordance with the criteria proposed for Leishmania in deciding when a compound qualifies to progress into ‘lead’ compound identification.

L. major [7] = test: L. major-infected peritoneal macrophages with or without CD3+ T cells, luminometry; assay type: cell-based, Leishmania major
Experimental: The anti-leishmanial efficacy of AZ was also evaluated in adherent peritoneal macrophages from naïve mice infected in vitro with L. major promastigotes (1 cell: 10 parasites) during 4 h at 34°C. After washing extracellular parasites, infected cells were transferred to white plates (10,000/well) and exposed to AZ. The effect of T cells on parasite burden of AZ-treated cells was evaluated using CD3T+ cells. These cells were isolated by positive selection with magnetic beads (MojoSort, Biolegend) from the lymph nodes of either uninfected or L. major-infected mice (1 infected macrophage: 2 lymphocytes ratio). Parasite burden was determined after 48 h of culture by luminometry.

[8] = Cytotoxicity in naive mouse peritoneal macrophages (CellTiter-Glo); assay type: cell-based; settings: read-out: CC50 (toxicity in peritoneal macrophages)
Experimental: as §2

[9] = tested on: L. major-LUC promastigotes; test: L. major-LUC promastigote culture, luminometry; assay type: cell-based, Leishmania major; settings: 48 h, compared with concentrations used against intracellular amastigotes
Experimental: as §1

[10] = parameters: method as in PMID 11316966; settings: daily oral 4 mg for 21 days, chronic idiopathic urticaria; cited from earlier work
[11] = FX lower-dose regimens (40 mg/kg twice a day or 80 mg/kg once a day)
[12] = AZ 0.06 mg/mouse intralesional, statistically non-significant
[13] = AZ 0.125 mg/mouse intralesional x3, luminometry

CN(C)CCN(Cc1ccc(Cl)cc1)c1ccccn1 [Chloropyramine]
EC50 (L. major [1]): 3.87 ± 0.2 µM
EC50 (L. major [1]; listed as chloropyramine): < 10 µM
CC50 at 24 h [2]: 140 ± 49.6 µM

NCCc1c[nH]cn1 [histamine]
expression of H1R [3]: markedly increased the expression of H1R
expression of IL-1ẞ [3]: increased the expression of IL-1ẞ

CN1CCC(=C2c3ccccc3C=Cc3ccccc32)CC1 [Cyproheptadine]
CC50 at 24 h [2]: 172 ± 41 µM

CN(C)CC[C@@H](c1ccc(Cl)cc1)c1ccccn1 [Dexchlorpheniramine maleate]
EC50 (L. major [1]; Leishmania major, 48 h): 35.2 ± 6.9 µM
CC50 at 24 h [2]: 177 ± 16.3 µM

C[C@@H]1[C@H](O)[C@@H](C)/C=C/C=C/C=C/C=C/C=C/C=C/C=C/[C@H](O[C@@H]2O[C@H](C)[C@@H](O)[C@H](N)[C@@H]2O)C[C@@H]2O[C@](O)(C[C@@H](O)C[C@@H](O)[C@H](O)CC[C@@H](O)C[C@@H](O)CC(=O)O[C@H]1C)C[C@H](O)[C@H]2C(=O)O [Amphotericin B]
EC50 (L. major [1]; Leishmania major, 48 h): 0.5 ± 0.01 µM
CC50 at 24 h [2]: 16.3 ± 1.49 µM

C(=C\c1ccccc1)/CN1CCN(C(c2ccccc2)c2ccccc2)CC1 [cinnarizine]
parasite load in hamster spleen (L. infantum [4]): failed to significantly decrease the parasite load

Cc1ccc(/C(=C\CN2CCCC2)c2ccccn2)cc1 [Triprolidine]
EC50 (L. major [1]; Leishmania major, 48 h): 11.2 ± 4.2 µM
CC50 at 24 h [2]: 390 ± 27.9 µM

CN/C(=N/CCSCc1nc[nH]c1C)NC#N [cimetidine]
treatment efficacy (Leishmania mexicana): effective

c1ccc2c(c1)Sc1ccccc1N2CC1CN2CCC1CC2 (stereo not shown) [Mequitazine]
EC50 (L. major [1]): 4.53 ± 3.9 µM
EC50 (L. major [1]; listed as mequitazine): < 10 µM
CC50 at 24 h [2]: 50.3 ± 8.75 µM

CC(C)(C(=O)O)c1ccc(C(O)CCCN2CCC(C(O)(c3ccccc3)c3ccccc3)CC2)cc1 (stereo not shown) [Fexofenadine]
EC50 (L. major [1]; Leishmania major, 48 h): 1.5 ± 0.18 µM
IC50 (L. infantum [5]): > 100 µM
reduction in lesion size (L. major [6]; FX 40 mg/kg PO twice a day): 50%
reduction in lesion size (L. major [6]; FX 80 mg/kg PO once a day): 37%
loss of body weight (L. major [6]; FX 80 mg/kg PO twice a day): ≤ 5%
reduction in lesion size compared with untreated control (L. major [6]; FX 80 mg/kg PO twice a day): 69%
reduction in parasite burden at the lesion site (L. major [6]; FX 80 mg/kg PO twice a day): 82%
reduction in parasite burden in draining lymph nodes (L. major [6]; FX 80 mg/kg PO twice a day): 81%
clinical side effects (L. major [6]; FX PO, 80 mg/kg twice a day, listed as FX, 80 mg/kg): no observable side effects; also recorded: no other clinical side effect was found
reduction of parasite load in lesions (L. major [6]; [11]): up to 59%
reduction of parasite load in lymph nodes (L. major [6]; [11]): ≤ 72%

CN1CCN2c3ccccc3Cc3ccccc3C2C1 (stereo not shown) [Mianserin]
CC50 at 24 h [2]: 157 ± 19 µM

CCCCCCCCCCCCCCCCOP(=O)([O-])OCC[N+](C)(C)C [Miltefosine]
EC50 (L. major [1]; Leishmania major, 48 h): 1.64 ± 0.26 µM
CC50 at 24 h [2]: 74.9 ± 5.01 µM

CN1CCCC(n2nc(Cc3ccc(Cl)cc3)c3ccccc3c2=O)CC1 (stereo not shown) [Azelastine]
intracellular amastigote suppression (L. major [7]; 0.5 μM, infected naive mouse peritoneal macrophages, 48 h): positive effect on intracellular amastigote suppression
parasite killing with primed T cells from infected mice (L. major [7]; in presence of AZ, versus macrophages alone or with naive lymphocytes): significantly enhanced parasite killing
CC50 at 24 h [8]: 0.95 µM
EC50 (L. major [1]; Leishmania major, 48 h): 0.05 ± 0.02 µM
suppressive effect against cultured promastigotes [9]: suppressive effect against cultured promastigotes only when used at concentrations 100-fold higher
CC50 at 24 h [2]: 45.1 ± 11.2 µM
side effects [10]: lack of side effects
reduction of parasite burden in lymph node (L. major [6]; [12]): 15%
reduction of parasite burden in the lesion (L. major [6]; [12]): 57%
reduction of parasite load in lymph node (L. major [6]; [13]): 36%
reduction of parasite load in the lesion (L. major [6]; [13]): 87%
lesion diminution compared with untreated controls (L. major [6]; AZ 0.125 mg/mouse, three intralesional injections every other day): 52%
weight loss or observable side effect (L. major [6]; AZ intralesional, 0.125 mg/mouse, listed as AZ): no observable side effects; also recorded: None of the mice treated with this compound presented weight loss or any observable side effect
decrease of the expression of IL-6 ([3]; qPCR, highly variable): 20.1± 21%
expression of H1R [3]: significantly inhibited its expression
expression of IL-1ẞ [3]: reduced the pro-inflammatory cytokine IL1-ẞ

CN1CCC(=C2c3ccccc3CC(=O)c3sccc32)CC1 [Ketotifen]
EC50 (L. major [1]; Leishmania major, 48 h): 11.86 ± 0.1 µM
CC50 at 24 h [2]: 282 ± 22.9 µM
